Experimental data: patent publication US20110207793A1, “1-AMINOCYCLOHEXANE DERIVATIVES FOR THE TREATMENT OF SLEEP DISORDERS” (priority 2008, published 2011)

Experiments:
[1] = tested on: subjects with subjective tinnitus of at least moderate severity; experiment: Double-blind placebo-controlled pilot trial of neramexane in tinnitus: question 12/5 (sleep item) of the structured tinnitus interview; assay type: in vivo, human; conditions: for TI Sleep item 12/5: Prevented (%) / TI Sleep item 12/5: Prevented n / TI Sleep item 12/5: affected (%) / TI Sleep item 12/5: affected n / TI Sleep item 12/5: no effect (%) / TI Sleep item 12/5: no effect n: ITT-OC
Description: (§1) The objective of this pilot project was to conduct a clinical trial to assess the efficacy of neramexane as a treatment for tinnitus. The primary objective of this study was to compare the efficacy, tolerability and safety of neramexane mesylate at three different dosages (25, 50 or 75 mg/d) with placebo in subjects with subjective tinnitus of at least moderate severity.
(§2) In a double-blind, multicenter, randomized, placebo-controlled, parallel-group study, the efficacy of neramexane in subjects suffering from tinnitus of at least moderate severity was assessed. Approximately 100 patients, who fulfilled particular inclusion criteria and met none of particular exclusion criteria, were randomized to each of four double-blind treatment groups (neramexane mesylate 25, 50, 75 mg/d or placebo), resulting in approximately 400 patients in total.
The double-blind, 16-week treatment period consisted of a 4-week uptitration period and a 12-week fixed-dose treatment period at unchanged maintenance b.i.d. dosing. In case of poor tolerability, however, the investigator could consider a dose reduction by 25 mg/d (or placebo, respectively). After the treatment phase, there was a 4-week follow-up period with no active treatment and concomitant therapy restrictions. In total, this study involved seven study visits: screening, baseline, and at the end of weeks 4, 8, 12, 16, and 20.
Visit 2 (baseline): The subject was asked about adverse events and changes in concomitant medication/disease, which events/changes were documented. The subject was evaluated for study eligibility based on a review of the inclusion/exclusion criteria. Trial procedures as well as allowed and forbidden concomitant medications were reviewed with the subject. An initial Tinnitus Interview was conducted. The subject also completed a TBF-12, HADS-D Questionnaire and GÜF Questionnaire (if applicable). The subject was enrolled in the study and study medication (placebo or neramexane) was dispensed as described below.
Visit 6 (Week 16, end of treatment). This visit occurred at the end of the 12-week fixed-dose double-blind treatment period. The subject was asked about adverse events and changes in concomitant medication/disease, which changes are documented. A clinical laboratory evaluation was performed. A follow-up Tinnitus Interview was conducted, and the subject completed a TBF-12, HADS-D Questionnaire and GÜF Questionnaire (if applicable). Pure-tone audiometry (air conduction) was also conducted.
Visit 7 (Week 20): This visit occurred at the end of the 4-week follow-up period after the last study medication dose. Review of concomitant medications as well as the occurrence of adverse events since the last visit is conducted with subject. A follow-up Tinnitus Interview was conducted, and the subject completed a TBF-12, HADS-D Questionnaire and GÜF Questionnaire (if applicable).
Neramexane mesylate immediate release tablets (12.5 mg and 25 mg) and matching placebo tablets were administered as film coated tablets.
Study medication was dispensed at Visit 2 (baseline, day, 0). Each patient received one blister box containing 5 blister cards (including one reserve blister) of double-blind study medication (i.e., 32 tablets). Subjects were instructed to take 2 tablets twice daily (4 tablets/d), beginning the day after dispensing of the study medication, until they returned for their next study visit (Visit 3). For those subjects assigned to receive active medication, some placebo tablets were incorporated into the dosing regimen to ensure blinding during the uptitration period. The target fixed-maintenance dose of 25, 50, or 75 mg neramexane mesylate/d was administered starting with the fifth week of double-blind treatment and was continued throughout the study. […]

[2] = tested on: subjects with subjective tinnitus of at least moderate severity; experiment: Double-blind placebo-controlled pilot trial of neramexane in tinnitus: TBF-12; assay type: in vivo, human; conditions: final daily doses of 50 or 75 mg, after 16-week double-blind treatment (Visit 6); distinct from placebo or low-dose (25 mg)
Description: as §1, §2
The double-blind, 16-week treatment period consisted of a 4-week uptitration period and a 12-week fixed-dose treatment period at unchanged maintenance b.i.d. dosing. In case of poor tolerability, however, the investigator could consider a dose reduction by 25 mg/d (or placebo, respectively). […]
Visit 1 (screening): After signing the consent form, the subject underwent a physical examination and clinical laboratory testing. Patient eligibility for the study was evaluated via a check of inclusion/exclusion criteria. […]

[3] = biological target: alpha9/alpha10 nicotinic receptor (Rattus norvegicus, UniProt P43144+Q9JLB5); conditions: Plazas, et al., Eur J Pharmacol., 2007; cited from earlier work
[4] = Follow-Up (Change from Baseline), 25 mg/d, N = 100
[5] = Follow-Up (Change from Baseline), 50 mg/d, N = 95
[6] = Follow-Up (Change from Baseline), 75 mg/d, N = 89
[7] = Week 16 Visit (Change from Baseline), 25 mg/d, N = 89
[8] = Week 16 Visit (Change from Baseline), 50 mg/d, N = 80
[9] = Week 16 Visit (Change from Baseline), 75 mg/d, N = 64

Chain of alpha9/alpha10 nicotinic receptor (P43144 26-479): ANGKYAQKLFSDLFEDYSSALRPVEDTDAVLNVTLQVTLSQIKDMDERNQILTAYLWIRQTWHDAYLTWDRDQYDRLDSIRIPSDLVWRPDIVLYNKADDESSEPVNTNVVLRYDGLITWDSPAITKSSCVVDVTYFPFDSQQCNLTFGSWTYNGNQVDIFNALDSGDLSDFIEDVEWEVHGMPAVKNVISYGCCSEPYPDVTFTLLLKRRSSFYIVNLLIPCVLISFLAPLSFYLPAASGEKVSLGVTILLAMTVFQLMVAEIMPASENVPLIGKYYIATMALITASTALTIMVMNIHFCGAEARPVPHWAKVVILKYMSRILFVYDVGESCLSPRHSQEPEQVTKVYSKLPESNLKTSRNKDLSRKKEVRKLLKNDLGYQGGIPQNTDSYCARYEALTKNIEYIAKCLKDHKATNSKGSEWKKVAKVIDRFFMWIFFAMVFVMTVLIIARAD
Chain of alpha9/alpha10 nicotinic receptor (Q9JLB5 25-447): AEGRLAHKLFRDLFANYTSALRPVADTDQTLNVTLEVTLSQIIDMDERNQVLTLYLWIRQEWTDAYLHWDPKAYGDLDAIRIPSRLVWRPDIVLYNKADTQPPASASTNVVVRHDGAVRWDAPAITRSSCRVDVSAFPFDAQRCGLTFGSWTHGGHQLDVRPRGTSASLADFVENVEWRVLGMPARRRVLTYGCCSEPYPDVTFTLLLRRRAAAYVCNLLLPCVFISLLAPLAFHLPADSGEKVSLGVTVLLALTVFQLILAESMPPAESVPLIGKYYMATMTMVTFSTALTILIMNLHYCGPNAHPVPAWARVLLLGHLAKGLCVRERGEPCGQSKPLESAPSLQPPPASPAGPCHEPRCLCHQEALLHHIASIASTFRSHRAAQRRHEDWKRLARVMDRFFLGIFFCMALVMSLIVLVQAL

CC1(C)CC(C)(C)CC(C)(N)C1 [Neramexane, 1-amino-1,3,3,5,5-pentamethylcyclohexane]
TI Sleep item 12/5: Prevented (%) ([1]; Baseline, 25 mg/d, N = 106): 12.3% | TI Sleep item 12/5: Prevented n ([1]; Baseline, 25 mg/d, N = 106): 13 | TI Sleep item 12/5: affected (%) ([1]; Baseline, 25 mg/d, N = 106): 64.2% | TI Sleep item 12/5: affected n ([1]; Baseline, 25 mg/d, N = 106): 68 | TI Sleep item 12/5: no effect (%) ([1]; Baseline, 25 mg/d, N = 106): 23.6% | TI Sleep item 12/5: no effect n ([1]; Baseline, 25 mg/d, N = 106): 25 | TI Sleep item 12/5: Prevented (%) ([1]; Baseline, 50 mg/d, N = 106): 6.6% | TI Sleep item 12/5: Prevented n ([1]; Baseline, 50 mg/d, N = 106): 7 | TI Sleep item 12/5: affected (%) ([1]; Baseline, 50 mg/d, N = 106): 66.0% | TI Sleep item 12/5: affected n ([1]; Baseline, 50 mg/d, N = 106): 70 | TI Sleep item 12/5: no effect (%) ([1]; Baseline, 50 mg/d, N = 106): 27.4% | TI Sleep item 12/5: no effect n ([1]; Baseline, 50 mg/d, N = 106): 29 | TI Sleep item 12/5: Prevented (%) ([1]; Baseline, 75 mg/d, N = 99): 8.1% | TI Sleep item 12/5: Prevented n ([1]; Baseline, 75 mg/d, N = 99): 8 | TI Sleep item 12/5: affected (%) ([1]; Baseline, 75 mg/d, N = 99): 68.7% | TI Sleep item 12/5: affected n ([1]; Baseline, 75 mg/d, N = 99): 68 | TI Sleep item 12/5: no effect (%) ([1]; Baseline, 75 mg/d, N = 99): 23.2% | TI Sleep item 12/5: no effect n ([1]; Baseline, 75 mg/d, N = 99): 23 | TI Sleep item 12/5: Prevented (%) [1, 4]: 3.0% | TI Sleep item 12/5: Prevented n [1, 4]: 3 | TI Sleep item 12/5: affected (%) [1, 4]: 65.0% | TI Sleep item 12/5: affected n [1, 4]: 65 | TI Sleep item 12/5: no effect (%) [1, 4]: 32.0% | TI Sleep item 12/5: no effect n [1, 4]: 32 | TI Sleep item 12/5: Prevented (%) [1, 5]: 1.1% | TI Sleep item 12/5: Prevented n [1, 5]: 1 | TI Sleep item 12/5: affected (%) [1, 5]: 57.9% | TI Sleep item 12/5: affected n [1, 5]: 55 | TI Sleep item 12/5: no effect (%) [1, 5]: 41.1% | TI Sleep item 12/5: no effect n [1, 5]: 39 | TI Sleep item 12/5: Prevented (%) [1, 6]: 3.4% | TI Sleep item 12/5: Prevented n [1, 6]: 3 | TI Sleep item 12/5: affected (%) [1, 6]: 57.3% | TI Sleep item 12/5: affected n [1, 6]: 51 | TI Sleep item 12/5: no effect (%) [1, 6]: 39.3% | TI Sleep item 12/5: no effect n [1, 6]: 35 | TI Sleep item 12/5: Prevented (%) [1, 7]: 2.2% | TI Sleep item 12/5: Prevented n [1, 7]: 2 | TI Sleep item 12/5: affected (%) [1, 7]: 65.2% | TI Sleep item 12/5: affected n [1, 7]: 58 | TI Sleep item 12/5: no effect (%) [1, 7]: 32.6% | TI Sleep item 12/5: no effect n [1, 7]: 29 | TI Sleep item 12/5: Prevented (%) [1, 8]: 1.3% | TI Sleep item 12/5: Prevented n [1, 8]: 1 | TI Sleep item 12/5: affected (%) [1, 8]: 48.8% | TI Sleep item 12/5: affected n [1, 8]: 39 | TI Sleep item 12/5: no effect (%) [1, 8]: 50.0% | TI Sleep item 12/5: no effect n [1, 8]: 40 | TI Sleep item 12/5: Prevented (%) [1, 9]: 6.3% | TI Sleep item 12/5: Prevented n [1, 9]: 4 | TI Sleep item 12/5: affected (%) [1, 9]: 50.0% | TI Sleep item 12/5: affected n [1, 9]: 32 | TI Sleep item 12/5: no effect (%) [1, 9]: 43.8% | TI Sleep item 12/5: no effect n [1, 9]: 28 | improvement of sleep, question 12/5 of the structured tinnitus interview ([1]; final daily doses of 50 or 75 mg, after 16 weeks of double-blind treatment, distinct from placebo or low-dose (25 mg)): clear improvement of their sleep | improvement of tinnitus as measured by the TBF-12 [2]: clear improvement of their tinnitus | activity at alpha9/alpha10 nicotinic receptor [3]: activity as an alpha9/alpha10 nicotinic receptor antagonist
